56 molecules from PubChem BioAssay AID1159565 (GlaxoSmithKline (GSK), 2015) can be followed below.

SMILES strings stand for the structures. Some results are limits rather than exact numbers.

One test relates to T. cruzi-infected H9C2 cardiomyocytes, high-content imaging. The experiment in a line: intracellular T. cruzi amastigote inhibition, imaging, H9C2 host cardiomyocytes, host toxicity (AID 1159565).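 Further: infected cells incubated 72 h after plating.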 The following applies: measured here: H9C2 host cell toxicity.
As to `c1ccc2[nH]c(-c3ccc(N4CCCC4)nc3)nc2c1`, the IC50 is more than 50 µM. `Cc1ccccc1OCC(=O)N1CCCN(c2cccnn2)CC1`: the IC50 was more than 50 µM. Take `CC(CNS(=O)(=O)c1ccc(OC(F)F)cc1)c1ccc(NC(=O)c2ccncc2)cc1` (centres undefined): the IC50 is more than 50 µM. On to `Cc1[nH]nc2c1C(c1ccc(OCc3ccccc3F)cc1)SCC(=O)N2` (centres undefined), for which the half-inhibitory concentration (IC50) was more than 50 µM. The same measure, in the same setting: the same measure for `CNC(=O)C1Cc2ccccc2N1C(=O)Cc1ccccc1` (centres undefined): more than 50 µM; for `COc1ccc(-c2cnc(NC(=O)c3cc(-c4ccccn4)n[nH]3)n2C)cc1`: more than 50 µM. Same read-out and setting: as for `Cc1ccc(S(=O)(=O)Cn2nnnc2C(c2cccnc2)N2CCN(c3ccccc3)CC2)cc1` (centres undefined), the figure is more than 50 µM. Molecule `O=S1N=C(NCCCN(Cc2ccc(F)cc2)c2ccccn2)C(NCc2ccncc2)=N1` (centres undefined) displayed an IC50 of more than 50 µM. `O=C(N[C@H](CO)c1ccccc1)c1ccc(-c2c[nH]c3nccc(C(F)(F)F)c23)s1` yielded a concentration for half-maximal inhibition (IC50) of 13 µM. Still for that read-out and setting: the same measure for `Cc1cc2ncn(-c3ccc([N+](=O)[O-])cc3C#N)c2cc1C`: more than 50 µM. As for `CS(=O)(=O)c1ccc(CC(=O)Nc2nc(-c3ccc(Cl)s3)cs2)cc1`, the IC50 is 16 µM. In turn, `COc1cnc2ccc(=O)n(CCN3CCC(NC(=O)Cc4ccc(Cl)c(Cl)c4)CC3)c2c1` displayed an IC50 of 6.3 µM. `CNS(=O)(=O)c1ccccc1Nc1nc(Nc2ccnn2C)ncc1Cl`: the IC50 was found to be 0.16 µM. This IC50 is about 39-fold lower than that of the molecule before. Same read-out and setting: as for `Cc1cc(Oc2cc(Cl)c(Cl)cc2Cl)n2ncnc2n1`, the figure is 7.9 µM; as for `COc1ccc([N+](=O)[O-])cc1NC(=O)c1cc(Cl)ccc1O`, more than 50 µM.

`Cc1cc(Br)cc(C(=O)c2c(C(C)C)c(=O)[nH]c(=O)n2Cc2ccnc(N)c2)c1` returned an IC50 of more than 50 µM. With `CN(Cc1nc2c(C(=O)N3CCN(Cc4ccccc4)CC3)cccc2[nH]1)C1CCCc2cccnc21` (centres undefined), the IC50 came to 7.9 µM.

The molecule `Cc1ccc(CNC2CCN(C[C@@H]3Cn4c(=O)ccc5ccc(=O)n3c54)CC2)cc1F` yielded an IC50 of more than 50 µM. Turning to `Oc1c(-c2n[nH]c(CCc3ccccc3)n2)ncc2cccnc12`, the IC50 is 16 µM. This lies in the double-digit micromolar range. Molecule `O=C(NCCc1cccnc1)c1ccc(-c2ccccc2F)o1` registered an IC50 of more than 50 µM.

Molecule `COc1ccc(-c2nc3ncccc3o2)cc1NC(=O)c1cccs1` came in with an IC50 of more than 50 µM. `Cc1ccccc1CNC(=O)CN(Cc1ccccn1)Cc1ccccn1` displayed an IC50 of more than 79 µM. As to `COc1cc(C(C)C)c(S(C)(=O)=O)cc1C(=O)N1CCN(c2ccccc2Cl)CC1`, the IC50 stood at 20 µM. This lies in the double-digit micromolar range. Same read-out and setting: the same measure for `N#Cc1cnc(Nc2cccc(CCN3CCOCC3)c2)nc1Nc1ccccc1C(N)=O`: 0.013 µM; for `O=C(NCCCn1cnc2ccccc21)c1ccc(NC(=O)c2ccco2)cc1`: more than 50 µM. In turn, `CCN(CC)c1ncc(C(=O)c2ccc([N+](=O)[O-])o2)s1` registered an IC50 of 5 µM. That is a single-digit micromolar value. On the same count and under the same terms, the same measure for `CN(CCOc1ccc(Cl)cc1)Cc1nc(N)nc(N(C)C)n1`: more than 50 µM; for `COc1ccc2ncc(=O)n(CCN3CCOC(CNCc4ccc(C(F)(F)F)cc4F)C3)c2n1` (centres undefined): more than 50 µM.

Staying with this test, now noted: measured here: amastigotes per cell.
`COc1ccccc1CNc1cc(C2CC2)nc(-c2nccn2C)n1`: the IC50 is 1 µM. For the molecule `CNS(=O)(=O)c1ccccc1Nc1nc(Nc2cc(C)nn2C)ncc1Cl`, the IC50 worked out at 0.5 µM. In turn, `Cc1[nH]n2c(=O)c3c(nc2c1-c1ccc(Cl)cc1)CCCC3` gave an IC50 of 0.25 µM. This IC50 is about 2-fold lower than that of the molecule before. In the case of `Cc1nc(-c2ccc3c(c2)OCO3)sc1C(=O)NCc1ccc2c(c1)OCO2`, the IC50 was found to be 0.5 µM. `O=C(CC1(O)C(=O)N(Cc2ccccc2)c2ccc(Br)cc21)c1cccnc1` (centres undefined): the IC50 was determined as 20 µM. This IC50 is about 40-fold higher than that of the molecule before. On the same count and under the same terms, the same measure for `COc1cccc(-c2c(C)nn(-c3nc(N)nc(-c4ccccn4)n3)c2N)c1`: 0.5 µM.

`Clc1ccc(CN2CCN(C3=NCCN3)CC2)cc1Cl` showed an IC50 of 1 µM. Against the preceding molecule, the IC50 is about 2-fold higher. The molecule `Cn1c(CN2CCN(c3ncc(C(F)(F)F)cc3Cl)CC2)nc2ccncc21` came in with an IC50 of 1 µM. That is a single-digit micromolar value. The molecule `O=C(COc1nn(-c2ccccc2)c2ncccc12)NCc1ccccc1` yielded an IC50 of 32 µM. This IC50 lies about 32-fold higher than the previous one. On to `O=C(CN1CCC2(O)CCCCC2C1c1ccc2c(c1)OCO2)Nc1ccc(Cl)cc1Cl` (centres undefined), for which the IC50 came out at 3.2 µM.

In turn, `O=C1CSC(c2cccnc2)N1c1ccc(Cl)cc1Cl` (centres undefined) had an IC50 of 0.16 µM. `CNc1cc(Cn2c(C(=O)c3cc(C)cc(Cl)c3)c(C(C)C)c(=O)[nH]c2=O)ccn1` had an IC50 of 0.02 µM.

`COc1cc(-c2noc(CC#N)n2)ccc1OC(F)F` returned a half-maximal inhibitory concentration (IC50) of 25 µM. `CCn1c(-c2nonc2N)nc2c([C@@H](C)O)ncc(O[C@H](CN)c3ccccc3)c21` returned an IC50 of 7.9 µM.

For the molecule `N#CN1CC[C@@H](NC(=O)Nc2ccccc2Oc2ccccc2)C1`, the IC50 is 5 µM. The same measure, in the same setting: as for `Cc1nc(-c2nc(NCc3ccc(Cl)cc3)c3cccnc3c2O)n[nH]1`, the figure is 1.3 µM. Consider `CN(C)CCN(C)Cc1ccc(Cl)cc1NS(=O)(=O)c1ccc(Cl)c(Cl)c1`, for which the IC50 was 2 µM. For `Cc1ccc(NC(=O)c2ccnc(N3CCCC3)c2)cc1-c1ccsc1C(N)=O`, the IC50 worked out at 7.9 µM. Against the preceding molecule, the IC50 is about 4-fold higher. Molecule `Cc1[nH]nc(C(F)(F)F)c1NC(=O)CCn1cc(Cl)c([N+](=O)[O-])n1` came in with an IC50 of 6.3 µM. The IC50 values of the last two molecules are within 1.5-fold of each other. As to `CNc1cncc(C2CCCN2C(=O)Cc2ccc3ccccc3c2)n1` (centres undefined), the IC50 is 0.16 µM. Still for that read-out and setting: as for `CCCc1cc(N)nc(-c2cc(CCC)cc(N)n2)c1`, the figure is 0.5 µM. As to `O=C(NCCc1ccccc1Cl)c1cccn1-c1cccnc1`, the IC50 came out at 0.5 µM. The molecule `CCCNC(=O)Nc1cccc(-c2nc3ncccc3o2)c1` yielded an IC50 of 3.2 µM. For `COc1cc(C2SCC(=O)Nc3c2c(C)nn3-c2nc3ccccc3s2)cc(OC)c1O` (centres undefined), the concentration for half-maximal inhibition (IC50) was more than 50 µM.

Regarding `C[C@@H](Oc1cc(-n2cnc3ccc(C(O)CO)cc32)sc1C(N)=O)c1ccccc1C(F)(F)F` (some centres undefined), the IC50 was 16 µM. `CC(C)c1cc(C(=O)N2CCCC(c3cc4ncccc4[nH]3)C2)on1` (centres undefined) yielded an IC50 of 1 µM. Against the preceding molecule, the IC50 is about 16-fold lower. For the molecule `N#Cc1cc([N+](=O)[O-])ccc1NC1CCCCCC1`, the IC50 was 1.3 µM. In the case of `N#Cc1nc(C=Cc2ccccc2)oc1NCc1cccnc1`, the IC50 is 0.4 µM.

With `c1ccc2[nH]c(-c3ccc(N4CCCC4)nc3)nc2c1`, the IC50 was found to be 1 µM. For the molecule `Cc1ccccc1OCC(=O)N1CCCN(c2cccnn2)CC1`, the 50% inhibitory concentration (IC50) amounted to 0.5 µM.

Take `CC(CNS(=O)(=O)c1ccc(OC(F)F)cc1)c1ccc(NC(=O)c2ccncc2)cc1` (centres undefined): the IC50 stood at 0.079 µM. Same read-out and setting: the same measure for `Cc1[nH]nc2c1C(c1ccc(OCc3ccccc3F)cc1)SCC(=O)N2` (centres undefined): 0.79 µM; for `CNC(=O)C1Cc2ccccc2N1C(=O)Cc1ccccc1` (centres undefined): more than 50 µM.

Take `COc1ccc(-c2cnc(NC(=O)c3cc(-c4ccccn4)n[nH]3)n2C)cc1`: the 50% inhibitory concentration (IC50) is 4 µM. The same measure, in the same setting: the same measure for `Cc1ccc(S(=O)(=O)Cn2nnnc2C(c2cccnc2)N2CCN(c3ccccc3)CC2)cc1` (centres undefined): 0.32 µM; for `O=S1N=C(NCCCN(Cc2ccc(F)cc2)c2ccccn2)C(NCc2ccncc2)=N1` (centres undefined): 40 µM; for `O=C(N[C@H](CO)c1ccccc1)c1ccc(-c2c[nH]c3nccc(C(F)(F)F)c23)s1`: 10 µM.

For `Cc1cc2ncn(-c3ccc([N+](=O)[O-])cc3C#N)c2cc1C`, the IC50 amounted to 0.79 µM.

In turn, `CS(=O)(=O)c1ccc(CC(=O)Nc2nc(-c3ccc(Cl)s3)cs2)cc1` returned a concentration for half-maximal inhibition (IC50) of 0.4 µM. This IC50 is about 2-fold lower than that of the molecule before. In the case of `COc1cnc2ccc(=O)n(CCN3CCC(NC(=O)Cc4ccc(Cl)c(Cl)c4)CC3)c2c1`, the concentration for half-maximal inhibition (IC50) came out at 0.16 µM. This IC50 is about 2.5-fold lower than that of the molecule before. In turn, `CNS(=O)(=O)c1ccccc1Nc1nc(Nc2ccnn2C)ncc1Cl` gave an IC50 of 0.63 µM. In turn, `Cc1cc(Oc2cc(Cl)c(Cl)cc2Cl)n2ncnc2n1` registered an IC50 of 10 µM.

Molecule `COc1ccc([N+](=O)[O-])cc1NC(=O)c1cc(Cl)ccc1O` came in with an IC50 of 7.9 µM. This IC50 and that of the molecule before are within 1.5-fold of each other. On to `Cc1cc(Br)cc(C(=O)c2c(C(C)C)c(=O)[nH]c(=O)n2Cc2ccnc(N)c2)c1`, for which the IC50 is 0.25 µM. Consider `CN(Cc1nc2c(C(=O)N3CCN(Cc4ccccc4)CC3)cccc2[nH]1)C1CCCc2cccnc21` (centres undefined), for which the IC50 was found to be 0.5 µM. This IC50 is about 2-fold higher than that of the molecule before. The molecule `Cc1ccc(CNC2CCN(C[C@@H]3Cn4c(=O)ccc5ccc(=O)n3c54)CC2)cc1F` gave an IC50 of 1 µM. The same measure, in the same setting: as for `Oc1c(-c2n[nH]c(CCc3ccccc3)n2)ncc2cccnc12`, the figure is 0.2 µM.

`O=C(NCCc1cccnc1)c1ccc(-c2ccccc2F)o1` had an IC50 of 0.2 µM. `COc1ccc(-c2nc3ncccc3o2)cc1NC(=O)c1cccs1` showed an IC50 of 2 µM. The same measure, in the same setting: the same measure for `Cc1ccccc1CNC(=O)CN(Cc1ccccn1)Cc1ccccn1`: 6.3 µM; for `COc1cc(C(C)C)c(S(C)(=O)=O)cc1C(=O)N1CCN(c2ccccc2Cl)CC1`: 2 µM; for `N#Cc1cnc(Nc2cccc(CCN3CCOCC3)c2)nc1Nc1ccccc1C(N)=O`: 2 µM.

As to `O=C(NCCCn1cnc2ccccc21)c1ccc(NC(=O)c2ccco2)cc1`, the IC50 was found to be 1.3 µM. `CCN(CC)c1ncc(C(=O)c2ccc([N+](=O)[O-])o2)s1` had an IC50 of 7.9 µM.

`CN(CCOc1ccc(Cl)cc1)Cc1nc(N)nc(N(C)C)n1`: the IC50 was 7.9 µM.

Molecule `COc1ccc2ncc(=O)n(CCN3CCOC(CNCc4ccc(C(F)(F)F)cc4F)C3)c2n1` (centres undefined) returned an IC50 of 0.63 µM. This IC50 lies about 13-fold lower than the previous one.

As usually defined, the IC50 is the concentration that gives 50% inhibition.
